In publication PMC10364322, “Evaluation of chronic drug-induced electrophysiological and cytotoxic effects using human-induced pluripotent stem cell-derived cardiomyocytes (hiPSC-CMs)” (Frontiers in Pharmacology, 2023):
Like-named read-outs stand apart in the source and are kept apart here.

System: hiPSC-CMs (iCell-Cardiomyocytes^2)
Summary of the method: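 Monolayers of hiPSC-CMs on fibronectin-coated MEA plates, 50 K/well, kept at 37°C, 5% CO2; compounds added in 0.1% final DMSO after 5-min baseline. Field potential and impedance parameters expressed as mean ± SD percent change from baseline; arrhythmic events noted; cytotoxicity fluorescence normalized to DMSO, Kruskal-Wallis.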

SMILES: COc1cccc2c1C(=O)c1c(O)c3c(c(O)c1C2=O)C[C@@](O)(C(=O)CO)C[C@@H]3O[C@H]1C[C@H](N)[C@H](O)[C@H](C)O1 [Doxorubicin]
- BR (beating rate), % change from baseline (0.1 µM, 2h): 7±3%
- Beating below threshold, number of observations/total well numbers (0.1 µM, 2h): 0/5
- Cessation of beating, number of observations/total well numbers (0.1 µM, 2h): 0/5
- EAD, number of observations/total well numbers (0.1 µM, 2h): 0/5
- FPD (field-potential duration), % change from baseline (0.1 µM, 2h): -0.9±3.5%
- FPDc (field-potential duration corrected by beat-rate), % change from baseline (0.1 µM, 2h): 1.2±2.7%
- Flat T-wave-like, number of observations/total well numbers (0.1 µM, 2h): 0/5
- BR (beating rate), % change from baseline (0.1 µM, 24h): 41±12 %
- Beating below threshold, number of observations/total well numbers (0.1 µM, 24h): 0/5
- Cessation of beating, number of observations/total well numbers (0.1 µM, 24h): 0/5
- EAD, number of observations/total well numbers (0.1 µM, 24h): 0/5
- FPD (field-potential duration), % change from baseline (0.1 µM, 24h): -18.2±8.6 %
- FPDc (field-potential duration corrected by beat-rate), % change from baseline (0.1 µM, 24h): -8.8±6.9 %
- Flat T-wave-like, number of observations/total well numbers (0.1 µM, 24h): 0/5
- BR (beating rate), % change from baseline (0.1 µM, 48h): 26±8 %
- Beating below threshold, number of observations/total well numbers (0.1 µM, 48h): 0/5
- Cessation of beating, number of observations/total well numbers (0.1 µM, 48h): 0/5
- EAD, number of observations/total well numbers (0.1 µM, 48h): 0/5
- FPD (field-potential duration), % change from baseline (0.1 µM, 48h): -24.4±9.8 %
- FPDc (field-potential duration corrected by beat-rate), % change from baseline (0.1 µM, 48h): -18.8±8.7 %
- Flat T-wave-like, number of observations/total well numbers (0.1 µM, 48h): 0/5
- BR (beating rate), % change from baseline (0.1 µM, 72h): 22±6 %
- Beating below threshold, number of observations/total well numbers (0.1 µM, 72h): 0/5
- Cessation of beating, number of observations/total well numbers (0.1 µM, 72h): 0/5
- EAD, number of observations/total well numbers (0.1 µM, 72h): 0/5
- FPD (field-potential duration), % change from baseline (0.1 µM, 72h): -25±8.7 %
- FPDc (field-potential duration corrected by beat-rate), % change from baseline (0.1 µM, 72h): -20.4±8.9 %
- Flat T-wave-like, number of observations/total well numbers (0.1 µM, 72h): 1/5
- BR (beating rate), % change from baseline (0.1 µM, 96h): -7±13%
- Beating below threshold, number of observations/total well numbers (0.1 µM, 96h): 0/5
- Cessation of beating, number of observations/total well numbers (0.1 µM, 96h): 0/5
- EAD, number of observations/total well numbers (0.1 µM, 96h): 0/5
- FPD (field-potential duration), % change from baseline (0.1 µM, 96h): -11.7±0.4 %
- FPDc (field-potential duration corrected by beat-rate), % change from baseline (0.1 µM, 96h): -16.2±0.1 %
- Flat T-wave-like, number of observations/total well numbers (0.1 µM, 96h): 3/5
- time point from which cessation of beating occurred in all wells (0.3 µM): 48 h
- BR (beating rate), % change from baseline (0.3 µM, 2h): 2±2%
- Beating below threshold, number of observations/total well numbers (0.3 µM, 2h): 0/5
- Cessation of beating, number of observations/total well numbers (0.3 µM, 2h): 0/5
- EAD, number of observations/total well numbers (0.3 µM, 2h): 0/5
- FPD (field-potential duration), % change from baseline (0.3 µM, 2h): 2.2±0.8%
- FPDc (field-potential duration corrected by beat-rate), % change from baseline (0.3 µM, 2h): 2.8±1.1%
- Flat T-wave-like, number of observations/total well numbers (0.3 µM, 2h): 0/5
- BR (beating rate), % change from baseline (0.3 µM, 24h): 24±8 %
- Beating below threshold, number of observations/total well numbers (0.3 µM, 24h): 0/5
- Cessation of beating, number of observations/total well numbers (0.3 µM, 24h): 0/5
- EAD, number of observations/total well numbers (0.3 µM, 24h): 0/5
- FPD (field-potential duration), % change from baseline (0.3 µM, 24h): -21±2.9 %
- FPDc (field-potential duration corrected by beat-rate), % change from baseline (0.3 µM, 24h): -14.6±1.7 %
- Flat T-wave-like, number of observations/total well numbers (0.3 µM, 24h): 2/5
- BR (beating rate), % change from baseline (0.3 µM, 48h): 40±8 %
- Beating below threshold, number of observations/total well numbers (0.3 µM, 48h): 0/5
- Cessation of beating, number of observations/total well numbers (0.3 µM, 48h): 2/5
- EAD, number of observations/total well numbers (0.3 µM, 48h): 0/5
- Flat T-wave-like, number of observations/total well numbers (0.3 µM, 48h): 3/5
- BR (beating rate), % change from baseline (0.3 µM, 72h): 39±0 %
- Beating below threshold, number of observations/total well numbers (0.3 µM, 72h): 0/5
- Cessation of beating, number of observations/total well numbers (0.3 µM, 72h): 4/5
- EAD, number of observations/total well numbers (0.3 µM, 72h): 0/5
- Flat T-wave-like, number of observations/total well numbers (0.3 µM, 72h): 1/5
- Beating below threshold, number of observations/total well numbers (0.3 µM, 96h): 0/5
- Cessation of beating, number of observations/total well numbers (0.3 µM, 96h): 5/5
- EAD, number of observations/total well numbers (0.3 µM, 96h): 0/5
- Flat T-wave-like, number of observations/total well numbers (0.3 µM, 96h): 0/5
- time point from which cessation of beating occurred in all wells (1 µM): 48 h
- BR (beating rate), % change from baseline (1 µM, 2h): 3±2%
- Beating below threshold, number of observations/total well numbers (1 µM, 2h): 0/5
- Cessation of beating, number of observations/total well numbers (1 µM, 2h): 0/5
- EAD, number of observations/total well numbers (1 µM, 2h): 0/5
- FPD (field-potential duration), % change from baseline (1 µM, 2h): 2.8±3.4%
- FPDc (field-potential duration corrected by beat-rate), % change from baseline (1 µM, 2h): 4.2±3%
- Flat T-wave-like, number of observations/total well numbers (1 µM, 2h): 0/5
- BR (beating rate), % change from baseline (1 µM, 24h): 68±21 %
- Beating below threshold, number of observations/total well numbers (1 µM, 24h): 0/5
- Cessation of beating, number of observations/total well numbers (1 µM, 24h): 0/5
- EAD, number of observations/total well numbers (1 µM, 24h): 0/5
- Flat T-wave-like, number of observations/total well numbers (1 µM, 24h): 4/5
- Beating below threshold, number of observations/total well numbers (1 µM, 48h): 0/5
- Cessation of beating, number of observations/total well numbers (1 µM, 48h): 5/5
- EAD, number of observations/total well numbers (1 µM, 48h): 0/5
- Flat T-wave-like, number of observations/total well numbers (1 µM, 48h): 0/5
- Beating below threshold, number of observations/total well numbers (1 µM, 72h): 0/5
- Cessation of beating, number of observations/total well numbers (1 µM, 72h): 5/5
- EAD, number of observations/total well numbers (1 µM, 72h): 0/5
- Flat T-wave-like, number of observations/total well numbers (1 µM, 72h): 0/5
- Beating below threshold, number of observations/total well numbers (1 µM, 96h): 0/5
- Cessation of beating, number of observations/total well numbers (1 µM, 96h): 5/5
- EAD, number of observations/total well numbers (1 µM, 96h): 0/5
- Flat T-wave-like, number of observations/total well numbers (1 µM, 96h): 0/5
- time point from which cessation of beating occurred in all wells (3 µM): 24 h
- Beating below threshold, number of observations/total well numbers (3 µM, 72h): 0/5
- Cessation of beating, number of observations/total well numbers (3 µM, 72h): 5/5
- EAD, number of observations/total well numbers (3 µM, 72h): 0/5
- Flat T-wave-like, number of observations/total well numbers (3 µM, 72h): 0/5
- Beating below threshold, number of observations/total well numbers (3 µM, 96h): 0/5
- Cessation of beating, number of observations/total well numbers (3 µM, 96h): 5/5
- EAD, number of observations/total well numbers (3 µM, 96h): 0/5
- Flat T-wave-like, number of observations/total well numbers (3 µM, 96h): 0/5
- BR (beating rate), % change from baseline (3 µM, 2h): 1±2%
- Beating below threshold, number of observations/total well numbers (3 µM, 2h): 0/5
- Cessation of beating, number of observations/total well numbers (3 µM, 2h): 0/5
- EAD, number of observations/total well numbers (3 µM, 2h): 0/5
- FPD (field-potential duration), % change from baseline (3 µM, 2h): 3.9±2.4%
- FPDc (field-potential duration corrected by beat-rate), % change from baseline (3 µM, 2h): 4.3±2.4%
- Flat T-wave-like, number of observations/total well numbers (3 µM, 2h): 0/5
- BR (beating rate), % change from baseline (3 µM, 24h): 41±36 %
- Beating below threshold, number of observations/total well numbers (3 µM, 24h): 0/5
- Cessation of beating, number of observations/total well numbers (3 µM, 24h): 1/5
- EAD, number of observations/total well numbers (3 µM, 24h): 0/5
- FPD (field-potential duration), % change from baseline (3 µM, 24h): -15.8±3.8 %
- FPDc (field-potential duration corrected by beat-rate), % change from baseline (3 µM, 24h): -2.9±4.7 %
- Flat T-wave-like, number of observations/total well numbers (3 µM, 24h): 2/5
- Beating below threshold, number of observations/total well numbers (3 µM, 48h): 0/5
- Cessation of beating, number of observations/total well numbers (3 µM, 48h): 5/5
- EAD, number of observations/total well numbers (3 µM, 48h): 0/5
- Flat T-wave-like, number of observations/total well numbers (3 µM, 48h): 0/5
